The text below walks through data of patent US12581252B2, “Substituted pyrrolo[3,4-b]pyridines as PI3K-α inhibitors” (Relay Therapeutics, Inc., priority 2020, dated 2026).

Chain of H1047R PIK3CA enzyme (P42336 whole entry H1047R): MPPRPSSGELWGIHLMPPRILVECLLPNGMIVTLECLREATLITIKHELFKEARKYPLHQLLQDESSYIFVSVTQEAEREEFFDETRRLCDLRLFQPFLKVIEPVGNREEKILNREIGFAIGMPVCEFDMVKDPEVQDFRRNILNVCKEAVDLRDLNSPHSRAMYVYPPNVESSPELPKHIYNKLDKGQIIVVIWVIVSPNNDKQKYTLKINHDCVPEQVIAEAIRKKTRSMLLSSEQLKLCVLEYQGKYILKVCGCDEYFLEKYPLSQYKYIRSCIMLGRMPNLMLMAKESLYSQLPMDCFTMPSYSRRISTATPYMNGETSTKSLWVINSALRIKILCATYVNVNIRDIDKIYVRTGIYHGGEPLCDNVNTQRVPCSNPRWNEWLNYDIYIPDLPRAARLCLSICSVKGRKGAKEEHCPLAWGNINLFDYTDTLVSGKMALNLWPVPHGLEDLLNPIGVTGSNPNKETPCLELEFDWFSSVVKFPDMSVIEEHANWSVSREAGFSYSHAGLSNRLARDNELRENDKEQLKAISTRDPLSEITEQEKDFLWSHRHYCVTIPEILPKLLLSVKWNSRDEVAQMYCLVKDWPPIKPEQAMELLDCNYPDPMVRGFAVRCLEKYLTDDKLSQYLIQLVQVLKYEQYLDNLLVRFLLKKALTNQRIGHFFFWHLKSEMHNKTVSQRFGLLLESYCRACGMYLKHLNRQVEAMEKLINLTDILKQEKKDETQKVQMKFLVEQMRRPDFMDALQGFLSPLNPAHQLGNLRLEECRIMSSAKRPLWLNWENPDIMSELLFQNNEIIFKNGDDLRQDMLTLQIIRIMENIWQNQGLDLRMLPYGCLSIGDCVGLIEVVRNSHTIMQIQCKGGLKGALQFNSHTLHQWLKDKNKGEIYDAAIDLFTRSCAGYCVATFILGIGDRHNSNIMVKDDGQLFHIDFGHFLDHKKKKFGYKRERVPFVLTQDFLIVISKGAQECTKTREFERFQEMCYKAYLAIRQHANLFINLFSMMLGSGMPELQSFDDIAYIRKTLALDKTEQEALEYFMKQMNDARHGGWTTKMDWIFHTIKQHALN
Chain of H1047R PIK3CA enzyme (P27986 whole entry partner): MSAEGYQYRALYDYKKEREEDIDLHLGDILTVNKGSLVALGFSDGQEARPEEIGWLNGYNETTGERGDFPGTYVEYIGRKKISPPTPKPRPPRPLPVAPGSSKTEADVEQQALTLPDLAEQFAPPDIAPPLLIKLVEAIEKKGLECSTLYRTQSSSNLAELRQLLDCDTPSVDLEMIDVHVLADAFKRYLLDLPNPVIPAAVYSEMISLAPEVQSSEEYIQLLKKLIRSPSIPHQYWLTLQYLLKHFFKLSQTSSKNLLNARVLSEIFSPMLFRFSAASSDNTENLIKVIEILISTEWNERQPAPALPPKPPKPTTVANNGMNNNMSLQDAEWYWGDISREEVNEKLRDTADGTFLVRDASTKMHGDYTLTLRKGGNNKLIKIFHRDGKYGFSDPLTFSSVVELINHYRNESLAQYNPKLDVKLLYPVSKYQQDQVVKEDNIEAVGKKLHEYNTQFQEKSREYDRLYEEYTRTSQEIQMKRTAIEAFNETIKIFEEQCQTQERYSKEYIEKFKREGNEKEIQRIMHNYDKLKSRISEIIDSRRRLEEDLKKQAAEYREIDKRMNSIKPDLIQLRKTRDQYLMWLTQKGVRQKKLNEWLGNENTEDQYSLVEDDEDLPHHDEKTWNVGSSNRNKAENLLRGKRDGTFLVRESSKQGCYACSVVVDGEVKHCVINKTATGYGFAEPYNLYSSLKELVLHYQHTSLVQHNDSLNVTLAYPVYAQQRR

This assay concerns the target H1047R PIK3CA enzyme (Homo sapiens, UniProt P42336, H1047R). The assay is described as follows: ADP-Glo Biochemical PIK3CA Kinase Assay. (ADP-Glo first removes unused ATP, then detects ADP through luciferase.)
Usually IC50 stands for the midpoint of a concentration-inhibition curve. Lower therefore signals higher potency. Consider `Cc1ccccc1C1NC(=O)c2cccc(NC(=O)c3cc(F)cc(OC(F)F)c3)c21` (stereo not shown) [Compound I-59], for which the IC50 was in the range of 1 to 10 µM.

With `Cc1ccccc1C1NC(=O)c2c(C(=O)NCC(F)F)ccc(NC(=O)c3nsc4ccccc34)c21` (stereo not shown) [Compound I-276], the IC50 was ≤ 0.1 µM.

`O=C1N[C@@H](c2cc(F)ccc2Cl)c2c(NC(=O)[C@@H]3CCC[C@@H](OC(F)(F)F)C3)cccc21` (single isomer, unassigned) [Compound I-2216] had an IC50 of 10 to 100 µM.

On to `O=C1NC(c2cc(F)ccc2Cl)c2c(NC(=O)[C@H]3C[C@@H](O)C[C@@H](C(F)(F)F)C3)cc(Br)cc21` (stereo partly shown) [Compound I-2027], for which the IC50 fell in the range of 10 to 100 µM.

For `O=C(Nc1cc(-c2ccc3ncnn3c2)cc2c1[C@H](c1cc(F)ccc1Cl)NC2=O)c1cc(F)cc(OC(F)F)c1` (stereo in doubt) [Compound I-1169], the IC50 was in the range of 0.1 to 0.5 µM.

`Cc1cnc2ccc(-c3cc(NC(=O)c4cc(F)cc(C(F)(F)F)c4)c4c(c3)C(=O)NC4c3cc(F)ccc3Cl)nn12` (stereo not shown) [Compound I-1190]: the IC50 is ≤ 0.1 µM.

For `O=C(Nc1cccc2c1C(Cc1ccccc1)NC2=O)c1cc(F)cc(C(F)(F)F)c1` (stereo not shown) [Compound I-1673], the IC50 was in the range of 10 to 100 µM.

Regarding `O=C1N[C@@H](c2ccccc2Cl)c2c(NC(=O)N3C[C@@](O)(C(F)(F)F)c4cc(F)ccc43)cccc21` (single isomer, unassigned) [Compound I-2685], the IC50 is 10 to 100 µM.

Turning to `N#CCCn1cc(-c2cc(NC(=O)c3cc(F)cc(C(F)(F)F)c3)c3c(c2)C(=O)NC3c2cc(F)ccc2Cl)cn1` (stereo not shown) [Compound I-1397], the IC50 is ≤ 0.1 µM.

For `Nc1ncc(C#Cc2cc(NC(=O)c3cc(F)cc(C(F)(F)F)c3)c3c(c2)C(=O)NC3c2cc(F)ccc2Cl)cn1` (stereo not shown) [Compound I-1153], the IC50 is ≤ 0.1 µM.

Regarding `O=C(Nc1cc(-c2ccc3cncn3c2)cc2c1C(c1cc(F)ccc1Cl)NC2=O)c1cc(F)cc(C(F)(F)F)c1` (stereo not shown) [Compound I-1500], the IC50 was ≤ 0.1 µM.

`Nc1cc(NC(=O)N2C[C@H](O)c3ccccc32)c2c(c1)C(=O)N[C@@H]2c1cc(F)ccc1Cl` (single isomer, unassigned) [Compound I-2130] displayed an IC50 of 1 to 10 µM.

Compound `Cc1ccccc1C1NC(=O)Oc2cccc(Br)c21` (stereo not shown) [Compound I-10] gave a half-maximal inhibitory concentration (IC50) of 10 to 100 µM.

In turn, `O=C(CN1CCCC1)Nc1cc(-c2ccc3ncnn3c2)cc2c1C(c1cc(F)ccc1Cl)NC2=O` (stereo not shown) [Compound I-1783] returned an IC50 of 10 to 100 µM.

As for `O=C1NC(c2cc(F)ccc2Cl)c2c(NC(=O)N3CCNc4ccccc43)cc(Br)cc21` (stereo not shown) [Compound I-716], the IC50 fell in the range of 1 to 10 µM.

`Nc1ccc(Cl)c(C2NC(=O)c3cccc(NC(=O)c4cc(F)cc(C(F)(F)F)c4)c32)c1` (stereo not shown) [Compound I-429] returned a concentration for half-maximal inhibition (IC50) of 1 to 10 µM.

`O=C1N[C@@H](c2cc(F)ccc2Cl)c2c(NC(=O)N3C[C@H](O)c4cc(F)ccc43)cc(-n3nccn3)cc21` (single isomer, unassigned) [Compound I-2343] returned an IC50 of 1 to 10 µM.

With `CC(C)(O)COc1cc(NC(=O)c2cc(F)cc(C(F)(F)F)c2)c2c(n1)C(=O)NC2c1cc(F)ccc1Cl` (stereo not shown) [Compound I-1421], the IC50 fell in the range of 0.1 to 0.5 µM.

On to `O=C(Nc1cccc2c1C(c1cc(F)ccc1Cl)NC2=O)c1cc(Br)cc(C(F)(F)F)c1` (stereo not shown) [Compound I-447], for which the IC50 was in the range of 1 to 10 µM.

`N#Cc1cnccc1-c1cc(NC(=O)c2cc(F)cc(C(F)(F)F)c2)c2c(c1)C(=O)N[C@H]2c1cc(F)ccc1Cl` (stereo in doubt) [Compound I-1232]: the IC50 is ≤ 0.1 µM.

In the case of `O=C(Nc1cc(-c2cnn3ccnc3c2)cc2c1C(c1cc(F)ccc1Cl)NC2=O)c1cc(F)cc(C(F)(F)F)c1` (stereo not shown) [Compound I-1504], the IC50 is ≤ 0.1 µM.

With `O=C(Nc1cc(-c2ccn3ncnc3c2F)cc2c1[C@H](c1cc(F)ccc1Cl)NC2=O)c1cc(F)cc(C(F)(F)F)c1` [Compound I-1765], the concentration for half-maximal inhibition (IC50) is ≤ 0.1 µM.

In turn, `O=C(Nc1cc(-c2ccc(=O)n(C3CC3)c2)cc2c1[C@@H](c1cc(F)ccc1Cl)NC2=O)c1cc(F)cc(C(F)(F)F)c1` [Compound I-744] came in with an IC50 of 1 to 10 µM.

For `Cc1nc(C)c(-c2cc(NC(=O)c3cc(F)cc(Cl)c3)c3c(n2)C(=O)NC3c2cc(F)ccc2Cl)s1` (stereo not shown) [Compound I-459], the IC50 is ≤ 0.1 µM.

With `O=C(Nc1cc(Br)cc2c1C(c1cc(F)ccc1C(F)F)NC2=O)c1cc(F)cc(C(F)(F)F)c1` (stereo not shown) [Compound I-206], the IC50 was ≤ 0.1 µM.

Turning to `O=C(Nc1cc(-c2ccn3ccnc3c2)cc2c1[C@@H](c1cc(F)ccc1Cl)NC2=O)c1cc(F)cc(C(F)(F)F)c1` [Compound I-1451], the IC50 is 0.1 to 0.5 µM.

As for `Nc1cn2cc(-c3cc(NC(=O)c4cc(F)cc(C(F)(F)F)c4)c4c(c3)C(=O)NC4c3cc(F)ccc3Cl)ccc2n1` (stereo not shown) [Compound I-1411], the IC50 was ≤ 0.1 µM.

`CCC[C@@]1(O)CN(C(=O)Nc2cccc3c2[C@H](c2cc(F)ccc2Cl)NC3=O)c2ccc(F)cc21` (single isomer, unassigned) [Compound I-2459]: the IC50 fell in the range of 1 to 10 µM.

On to `CC(C)(O)Cc1cc(NC(=O)c2cc(F)cc(Cl)c2)c2c(c1)C(=O)N[C@H]2c1cc(F)ccc1Cl` [Compound I-963], for which the IC50 is 0.5 to 1 µM.

The compound `O=C(Nc1cc(Br)cc2c1C(c1cc(F)ccc1Cl)NC2=O)c1cccc(C(F)(F)F)c1` (stereo not shown) [Compound I-801] gave an IC50 of 0.1 to 0.5 µM.

`CC(C)(O)c1cc(NC(=O)c2cc(F)cc(C(F)(F)F)c2)c2c(n1)C(=O)N[C@@H]2c1cc(F)ccc1Cl` [Compound I-271] showed an IC50 of 1 to 10 µM.

`O=C(Nc1cc(Br)cc2c1C(c1cc(F)ccc1Cl)NC2=O)c1ccccc1Cl` (stereo not shown) [Compound I-477] showed an IC50 of 10 to 100 µM.

Regarding `Cc1ccccc1C1NC(=O)c2nccc(NC(=O)N3CCc4cccnc43)c21` (stereo not shown) [Compound I-282], the IC50 was 1 to 10 µM.

`CNC(=O)c1cc(NC(=O)c2ccccc2)c2c(c1)C(=O)NC2c1cc(F)ccc1Cl` (stereo not shown) [Compound I-1548] registered an IC50 of 10 to 100 µM.

Consider `Cc1ccccc1C1NC(=O)c2cccc(Nc3cc4ccccc4nn3)c21` (stereo not shown) [Compound I-27], for which the IC50 lay in the range of 10 to 100 µM.

For the compound `Cc1ccccc1C1NC(=O)c2cc(CCO)cc(NC(=O)c3csc4ccccc34)c21` (stereo not shown) [Compound I-181, N-[6-(2-Hydroxyethyl)-3-(2-methylphenyl)-1-oxo-2,3-dihydro-1H-isoindol-4-yl]-1-benzothiophene-3-carboxamide], the IC50 was ≤ 0.1 µM.

For the compound `Cc1ccccc1C1NC(=O)c2c(N(C)C)ncc(NC(=O)c3cc(F)cc(C(F)(F)F)c3)c21` (stereo not shown) [Compound I-243], the IC50 fell in the range of 0.5 to 1 µM.

Compound `O=C(Nc1cc(Br)cc2c1C(c1cc(F)ccc1Cl)NC2=O)c1ccc(OC(F)F)c(F)c1` (stereo not shown) [Compound I-1286] showed an IC50 of 1 to 10 µM.

With `O=C(Nc1cc(-c2ccc3ncnn3c2)cc2c1C(c1cc(F)ccc1Cl)NC2=O)c1cc(CO)cc(C(F)(F)F)c1` (stereo not shown) [Compound I-1773], the IC50 lay in the range of 10 to 100 µM.

`O=C(Nc1cccc2c1C(c1ccc(-c3ccccc3)cc1Cl)NC2=O)c1cc(F)cc(C(F)(F)F)c1` (stereo not shown) [Compound I-421]: the IC50 fell in the range of 1 to 10 µM.

Turning to `O=C1N[C@@H](c2cc(F)ccc2Cl)c2c(NC(=O)c3csc4ccccc34)cc(Br)cc21` [Compound I-734], the IC50 was ≤ 0.1 µM.

Compound `Cc1ccccc1C1NC(=O)c2cccc(NC(=O)c3nsc4ccc(-c5cnn(C)c5)cc34)c21` (stereo not shown) [Compound I-445] showed an IC50 of 1 to 10 µM.

With `O=C(Nc1cc(C2CCCN2)cc2c1C(c1cc(F)ccc1Cl)NC2=O)c1cc(F)cc(C(F)(F)F)c1` (stereo not shown) [Compound I-1218], the IC50 was ≤ 0.1 µM.

In turn, `O=C1N[C@H](c2cc(F)ccc2Cl)c2c(Nc3cn[nH]c3)cc(Br)cc21` (racemic) [Compound I-2183] had an IC50 of 10 to 100 µM.

In turn, `O=C1NCc2c(NC(=O)N3CCCC[C@H]3Cc3ccccc3)cccc21` (stereo in doubt) [Compound I-988] gave an IC50 of 10 to 100 µM.

On to `CN(C)S(=O)(=O)Cc1cc(NC(=O)c2cc(F)cc(C(F)(F)F)c2)c2c(c1)C(=O)NC2c1cc(F)ccc1Cl` (stereo not shown) [Compound I-1275], for which the IC50 is ≤ 0.1 µM.

Compound `Cc1ccccc1[C@@H]1NC(=O)c2nccc(NC(=O)N3CCc4c(F)cc(F)cc43)c21` [Compound I-229] displayed an IC50 of 0.5 to 1 µM.

Take `C[S+]([O-])c1ccccc1-c1cc(NC(=O)c2cc(F)cc(C(F)(F)F)c2)c2c(c1)C(=O)NC2c1cc(F)ccc1Cl` (stereo not shown) [Compound I-1150]: the IC50 is ≤ 0.1 µM.

For the compound `O=C(Nc1cc(CNC2COC2)cc2c1C(c1cc(F)ccc1Cl)NC2=O)c1cc(F)cc(C(F)(F)F)c1` (stereo not shown) [Compound I-352], the IC50 is ≤ 0.1 µM.

In the case of `O=C(Nc1cc(-c2cnn(C3CC3)c2)cc2c1[C@@H](c1cc(F)ccc1Cl)NC2=O)c1cc(F)cc(C(F)(F)F)c1` (single isomer, unassigned) [Compound I-1021], the IC50 lay in the range of 10 to 100 µM.

Compound `O=C1NC(c2cc(F)ccc2Cl)c2c(NC(=O)N3CCCC(O)C3)cc(-c3ccc4ncnn4c3)cc21` (stereo not shown) [Compound I-1721] had an IC50 of 10 to 100 µM.

The compound `O=C1N[C@H](c2cc(F)ccc2Cl)c2c(NC(=O)[C@H]3CC[C@@H](C(F)(F)F)C3)cccc21` [Compound I-2083] showed an IC50 of 10 to 100 µM.

The compound `C[C@H](C#N)Cn1cc(-c2cc(NC(=O)N3C[C@@H](O)c4cc(F)ccc43)c3c(c2)C(=O)N[C@H]3c2cc(F)ccc2Cl)cn1` (single isomer, unassigned) [Compound I-2502] gave an IC50 of 1 to 10 µM.

Consider `O=C1N[C@@H](c2cc(F)ccc2Cl)c2c(NC(=O)N3C[C@@H](O)c4ccccc43)cc(-c3ccc4ncnn4c3)cc21` (single isomer, unassigned) [Compound I-1577], for which the IC50 was ≤ 0.1 µM.

Turning to `CC(C)(C(=O)O)c1cc(NC(=O)c2cc(F)cc(C(F)(F)F)c2)c2c(c1)C(=O)NC2c1cc(F)ccc1Cl` (stereo not shown) [Compound I-427], the IC50 was 0.1 to 0.5 µM.

Turning to `COc1ccc2c(c1)CCN2C(=O)Nc1cccc2c1C(c1cc(F)ccc1Cl)NC2=O` (stereo not shown) [Compound I-2437], the IC50 fell in the range of 10 to 100 µM.

In the case of `CC(C)(CN)n1cc(-c2cc(NC(=O)N3C[C@](O)(C(F)(F)F)c4cc(F)ccc43)c3c(c2)C(=O)N[C@H]3c2cc(F)ccc2Cl)cn1` (single isomer, unassigned) [Compound I-2652], the IC50 lay within 1 to 10 µM.

For the compound `O=C(Nc1cc(NCC(F)(F)F)nc2c1C(c1cc(F)ccc1Cl)NC2=O)c1cc(F)cc(C(F)(F)F)c1` (stereo not shown) [Compound I-321], the concentration for half-maximal inhibition (IC50) was ≤ 0.1 µM.
